Where a name gives a salt, the structure may show the parent alone.
Tests used:
Staphylococcus aureus = experiment: In vitro antimicrobial zone of inhibition study; format: cell-based
Description: The antimicrobial/antibacterial activity of the product is confirmed by the in vitro Antimicrobial Zone of Inhibition studies for the product against Staphylococcusaureus. The details of the studies are detailed below in Table 16.

[1] = Stability analysis of raw API (3 months, open & closed Petri dish) by stability indicating HPLC method and titration method; format: physicochemical; conditions: for Fusidic Acid Assay (%) HPLC / Fusidic Acid Assay (%) Titration / Percentage Drop (%) HPLC / Percentage Drop (%) Titration / Sodium Fusidate Assay(%) HPLC / Sodium Fusidate Assay(%) Titration / Percentage (%) HPLC / Percentage (%) Titration: after 3 months; for Percentage Drop (%) HPLC / Percentage Drop (%) Titration: Fusidic acid API; for Percentage (%) HPLC / Percentage (%) Titration: Sodium Fusidate API
gram-negative bacteria = conditions: cited from earlier work
[2] = 20° C.; cited from earlier work
bacterial cells = conditions: in vitro; cited from earlier work
[3] = at the time of receipt of the API from the supplier

SMILES: CC(=O)O[C@H]1C[C@@]2(C)[C@@H](C[C@@H](O)[C@H]3[C@@]4(C)CC[C@@H](O)[C@@H](C)[C@@H]4CC[C@@]32C)/C1=C(\CCC=C(C)C)C(=O)O [Fusidic Acid, Fusidic acid]
- Inference (Staphylococcus aureus; Dose 10 mcg): Sensitive
- Zone Diameter Range (mm) (Staphylococcus aureus; Dose 10 mcg): 21-33 mm
- Inference (Staphylococcus aureus; Dose 20 mcg): Sensitive
- Zone Diameter Range (mm) (Staphylococcus aureus; Dose 20 mcg): 20-30 mm
- Inference (Staphylococcus aureus; Dose 50 mcg): Sensitive
- Zone Diameter Range (mm) (Staphylococcus aureus; Dose 50 mcg): 25-32 mm
- Fusidic Acid Assay (%) HPLC ([1]; 45° C. (Closed)): 92.12%
- Fusidic Acid Assay (%) Titration ([1]; 45° C. (Closed)): 99.10%
- Fusidic Acid Assay (%) HPLC ([1]; 45° C. (Open)): 89.52%
- Fusidic Acid Assay (%) Titration ([1]; 45° C. (Open)): 98.52%
- loss in 3 Months ([1]; 45° C. (open condition)): about 11%
- Percentage Drop (%) HPLC ([1]; 45° C. (Closed)): 8.48%
- Percentage Drop (%) Titration ([1]; 45° C. (Closed)): 1.50%
- Percentage Drop (%) HPLC ([1]; 45° C. (Open)): 11.08%
- Percentage Drop (%) Titration ([1]; 45° C. (Open)): 2.08%
- Percentage Drop (%) HPLC ([1]; RT (Closed)): 6.23%
- Percentage Drop (%) Titration ([1]; RT (Closed)): 1.58%
- Percentage Drop (%) HPLC ([1]; RT (Open)): 7.67%
- Percentage Drop (%) Titration ([1]; RT (Open)): 1.39%
- Fusidic Acid Assay (%) HPLC ([1]; RT (Closed)): 94.37%
- Fusidic Acid Assay (%) Titration ([1]; RT (Closed)): 99.02%
- Fusidic Acid Assay (%) HPLC ([1]; RT (Open)): 92.93%
- Fusidic Acid Assay (%) Titration ([1]; RT (Open)): 99.21%
- Fusidic Acid Initial (%) [1, 3]: 100.6%
- loss in 3 Months ([1]; room temperature (open condition)): about 7.7%

SMILES: CC1(C)S[C@@H]2[C@H](NC(=O)Cc3ccccc3)C(=O)N2[C@H]1C(=O)O [Penicillin G]
- Inference (Staphylococcus aureus; Dose 10 Units): Resistant
- Zone Diameter Range (mm) (Staphylococcus aureus; Dose 10 Units): 21-27 mm

SMILES: CC(=O)O[C@H]1C[C@@]2(C)[C@@H](C[C@@H](O)[C@H]3[C@@]4(C)CC[C@@H](O)[C@@H](C)[C@@H]4CC[C@@]32C)/C1=C(\CCC=C(C)C)C(=O)O [Sodium Fusidate, 3μ,11μ,16β-Trihydroxy 29-nor-8μ, 9β, 13μ, 14β-dammara-17(20) [10,21-cis], 24-dien-21-oic acid 16-acetate, sodium salt]
- activity against gram-negative bacteria (gram-negative bacteria): virtually inactive
- solubility in water [2]: soluble in one part of water
- time DNA synthesis continues after contact (bacterial cells): 45 min
- time until bacterial cells stop dividing after contact with the antibiotic (bacterial cells): ≤ 2 min
- Sodium Fusidate Assay(%) HPLC ([1]; 45° C. (Closed)): 92.96%
- Sodium Fusidate Assay(%) Titration ([1]; 45° C. (Closed)): 97.16%
- Sodium Fusidate Assay(%) HPLC ([1]; 45° C. (Open)): 92.65%
- Sodium Fusidate Assay(%) Titration ([1]; 45° C. (Open)): 97.07%
- loss in 3 Months ([1]; 45° C. (open condition), sodium salt): about 6%
- Sodium Fusidate Assay(%) HPLC ([1]; RT (Closed)): 97.67%
- Sodium Fusidate Assay(%) Titration ([1]; RT (Closed)): 98.85%
- Sodium Fusidate Assay(%) HPLC ([1]; RT (Open)): 96.25%
- Sodium Fusidate Assay(%) Titration ([1]; RT (Open)): 97.71%
- Percentage (%) HPLC ([1]; 45° C. (Closed)): 5.74%
- Percentage (%) Titration ([1]; 45° C. (Closed)): 1.54%
- Percentage (%) HPLC ([1]; 45° C. (Open)): 6.05%
- Percentage (%) Titration ([1]; 45° C. (Open)): 1.63%
- Percentage (%) HPLC ([1]; RT (Closed)): 1.03%
- Percentage (%) Titration ([1]; RT (Closed)): −0.15%
- Percentage (%) HPLC ([1]; RT (Open)): 2.45%
- Percentage (%) Titration ([1]; RT (Open)): 0.99%
- stability as an API compared with Fusidic acid ([1]; Tables 1 and 2): more stable than Fusidic acid
- Sodium Fusidate Initial (%) [1, 3]: 98.7%
- loss in 3 Months ([1]; room temperature (open condition), sodium salt): about 2.5%
